Results: patent US5171662A, “Method of detecting HIV protease activity” (priority 1991, dated 1992)
Non-standard residues stand in square brackets, D forms with d. Residues, ends and D or L forms follow the SMILES beside them. No end group written: not given here. *: point of attachment. Sta = CC(C)C[C@H](N)[C@@H](O)CC(=O)O; Isovaleryl = CC(C)CC(=O)*

Legend:
[1] = system: HIV protease; settings: cited from earlier work
[2] = system: HIV protease; settings: cited from earlier work; remark: listed apart in the source
[3] = system: synthetic protease (99-residue peptide with the sequence proposed for the HIV protease); settings: cited from earlier work
[4] = target: HIV protease (HIV-1 M:B_HXB2R, UniProt P04585); experiment: Cleavage of tetradecapeptide substrate by HIV protease, Ang I determined by RIA; assay type: biochemical
Source text: The tetradecapeptide (TDP) substrate, Asp-Arg-Val-Tyr-Ile-His-Pro-Phe-His-Leu-Leu-Val-Tyr-Ser, was obtained from Peninsula Laboratories, Inc., Belmont, Calif. The Ang I RIA kit was purchased from Baxter Health Care Corporation, Cambridge, Mass. Recombinant HIV-1 protease was purified and refolded from E. coli as published previously (Tomasselli, A. G. et. al. (1990) Biochemistry 29, 264-269). The TDP substrate has an HIV protease cleavage site which when cut at the Leu-Leu bond produces authentic Ang I. The Ang I RIA kit detected the Angiotesin I if produced.
The various steps of the in vitro assay to screen a compound were performed as follows. The series of assays are done for each compound, each assay using a different concentration of compound. The various reagents were added to the system in the order which they are listed.
1. 52 μl assay buffer (0.1M Sodium Acetate, 10% glycerol, 3 mM EDTA, 5% ethylene glycol, 1 mg/ml BSA, pH 5.5)
2. 15 μl HIV-1 protease (final Concentration in assay 0.75 μg/ml). For inhibition studies, 12 μl of inhibitor solution was added prior to adding the enzyme.
3. 135 μl of 2.8 uM substrate (final concentration about 1.9 μM)
4. […]
5. […] Following an overnight equilibration at room temperature, the tubes are drained and the amount of radioactivity (^125 I-labeled Ang I) remaining on the tube is determined in a gamma counter. […]

Molecule | inhibition of cleavage of gag precursor polyproteins by HIV protease [1] | inhibition of autoprocessing which liberates the protease from the precursor [2] | inhibition of proteolytic action of the synthetic protease [3] | cleavage of substrate by HIV protease [4]
CC(C)CC(=O)N[C@H](C(=O)N[C@H](C(=O)N[C@@H](CC(C)C)[C@@H](O)CC(=O)N[C@@H](C)C(=O)N[C@@H](CC(C)C)[C@@H](O)CC(=O)O)C(C)C)C(C)C [pepstatin A] (Isovaleryl-VV[Sta]A[Sta]-OH) | can be inhibited by pepstatin A | can be inhibited | can be inhibited by pepstatin | 
DRVYIHPFHLLVYS [TDP] |  |  |  | HIV protease cleaves the Ang I substrate
